# Literature values in US6346251B1 (priority 1999, dated 2002).
# Experiments:
# [1] = system: human epidermoid cells, virally infected with HSV-2
# [2] = system: human epidermoid cells
# [3] = system: cancer; details: Phase II testing
structure (smiles),measurement,setting,value
CC(=O)OC[C@]12CCC(C)=C[C@H]1O[C@@H]1[C@H](O)[C@@H](OC(C)=O)[C@@]2(C)[C@]12CO2 [DAS],"Trichothecene Concentrations, Protein Synthesis Inhibition 50%",[1],2.3 ng/mL
same,"Trichothecene Concentrations, Protein Synthesis Inhibition 80% (PIC80)",[1],4.0 ng/mL
same,"Trichothecene Concentrations, Protein Synthesis Inhibition 85% (PIC85)",[1],4.2 ng/mL
same,"Trichothecene Concentrations, Protein Synthesis Inhibition 90% (PIC90)",[1],4.5 ng/mL
same,hyperactive protein synthesis inhibited,[1],~99%
same,"Trichothecene Concentrations, PIC100 max",[2],200 ng/mL
same,concentrations that did not reduce cell viability,[2],up to 200 ng/ml
same,nontoxic zone,[2],< 200 ng/mL
same,safe level,[2],200 ng/mL
CC(=O)OC[C@]12CCC(C)=C[C@H]1O[C@@H]1[C@H](O)[C@@H](OC(C)=O)[C@@]2(C)[C@]12CO2 [Anguidine],hematologic toxicity,[3],considerable hematologic toxicity
same,tumor response,[3],low tumor response
